Reference: US20050220900A1, “Use of extracts containing phytoestrogen selectively modulating estrogen-receptor-beta” (priority 2002, published 2005)

Tests used:
[1] = test system: human granulosa/luteal cells; assay: progesterone secretion of human granulosa/luteal cells; format: cell-based; conditions: 5-hour incubation, 1 μM
Source text: Luteal cell cultures are an established test method for the paracrine effect of steroids. Such cells are not available from humans, since all surgical procedures in which biopsies can be taken are always performed at the follicular phase to avoid the risk of an undetected pregnancy. However, these granulosa/luteal cells become available in the course of in vitro fertilization programs and are maintained in culture, and they behave very much like luteal cells in terms of receptor population and secretory function. An estrogenic effect of vitex agnus castus was tested with this human in vitro testing system. […] FIG. 5: […] The * indicates a significant deviation from the (culture) medium control. FIG. 6 summarizes the effect of vitex agnus castus extracts upon progesterone secretion under this testing system after a 5-hour incubation.

[2] = test system: porcine luteal cells; assay: progesterone secretion of porcine luteal cells; format: cell-based; conditions: anti-estrogen alone
Description: To reinforce this conclusion, the cells were incubated with vitex agnus castus extract along with the anti-estrogen tamoxifen.

| SMILES | effect on progesterone secretion [1] | effect on progesterone excretion, tamoxifen alone [2] |
| --- | --- | --- |
| C[C@]12CC[C@@H]3c4ccc(O)cc4CC[C@H]3[C@@H]1CC[C@H]2O [17-alpha estradiol, estradiol 17-alpha] | no effect |  |
| CC/C(=C(\c1ccccc1)c1ccc(OCCN(C)C)cc1)c1ccccc1 [tamoxifen] |  | without effect |
